Test results from patent US10457943B2, “Antisense oligonucleotides for treatment of cancer stem cells” (Andes Biotechnologies Global, Inc., priority 2013, dated 2019).
Entries after “also recorded” stand apart in the source; their conditions may differ.

Legend:
[1] = test system: CerCa 1 primary cervical tumor cells (HPV 16); assay: Sphere formation assay, primary cervical tumor cells CerCa 1; type: cell-based, human; settings: incubated with 45 μM cisplatin
Method: (§1) The ability of cervical cells from the SiHa cervical cancer cell line (transformed with Human Papillomavirus 16 or HPV 16) and from primary cultures of human uterine cervical cancer cells derived from patients to form spheroid bodies following treatment with antisense oligonucleotides directed to antisense non-coding chimeric mitochondrial RNA (ASncmtRNA) was determined. The assay utilized measured the numbers of spheroid bodies, also referred to herein as spheres, which are formed by cancer stem cells.
(§2) The experimental procedure and assay utilized herein measured the effect of antisense oligonucleotides that were targeted to ASncmtRNA on the number of spheres formed by cervical cancer cells (FIG. 6). Sphere formation was measured in the SiHa cervical cancer cell line and primary cultures of human cervical cancer cells derived from patients (CerCa). […]
(§3) About 1×10^5 cells resuspended in MEGM™ medium supplemented with 20 ng/ml of hEGF, hydrocortisone, insulin, GA-1000 (Lonza), 0.5×B-27 without vitamin A (Invitrogen), 20 ng/ml of FGFb (Invitrogen) without CFS were seeded on ultra-low adherence plates (Corning). Ten days later, the spheres were counted under phase microscopy, collected and filtered using a nylon mesh of 70 μm to discard single cells. […]
(§4) The different primary cultures were analyzed with the PGMY09/11 Linear Array (Roche). […]

[2] = test system: CerCa 3 primary cervical tumor cells (HPV 45); assay: Sphere formation assay, primary cervical tumor cells CerCa 3; type: cell-based, human; settings: incubated with 45 μM cisplatin
Method: as §1, §2, §3, §4

[3] = test system: SiHa cervical cancer cell line (HPV 16); assay: Sphere formation assay, SiHa cervical cancer cell line; type: cell-based, human; settings: incubated with 45 μM cisplatin
Method: as §1
as §2, with “(CerCa). CerCa 1, CerCa 2 and CerCa 3 (transformed with Human Papillomavirus 45) were obtained from patient biopsies.” for “(CerCa).”
as §3

[4] = test system: CerCa 2 primary cervical tumor cells (HPV 16); assay: Sphere formation assay, primary cervical tumor cells CerCa 2; type: cell-based, human; settings: incubated with 45 μM cisplatin
Method: as §1, §2, §3, §4

[5] = test system: B16F10 melanoma cells; assay: Relapse and metastasis after surgical removal of B16F10 melanoma tumors (Example 3); type: in vivo, C57BL/6 mice
Method: One common clinical protocol for melanoma includes surgical resection follow by systemic administration of drugs. Similar protocols are used in the practice of other tumors. In the melanoma model presented in this representative example, B16F10 melanoma cells (100,000 cells in 200 μl of saline) were injected subcutaneously on the back of C57BL/6 mice. About 11 to 12 days post-cell injection, tumors between 700 to 1.000 mm3 developed (a 1,000 mm3 tumor in mice is considered equivalent to a 3,000 cc3 tumor in humans). […] Tumors were surgically resected under anesthesia and the wound washed once with 250 μl containing 100 μg of ASO 1560S or ASO 154. After surgical suture, a bolus of 200 μl saline containing 100 μg of ASO 154 or ASO 1560S was applied into the cavity left by the tumor. Three days post-surgery, mice received on alternative days, 3 intravenous (FIG. 9; 1st, 3rd, 5th arrows on timeline) or 3 intraperitoneal (FIG. 9; 2nd, 4th, 6th arrows on timeline) injections of 250 μl saline containing 100 μg of either ASO 1560S or ASO 154. Tumor growth was measured twice a week with a caliper.
Relapse of tumor growth in mice treated with ASO 154 was observed about 3 days post-surgery and tumor volume of about 1,500 mm3 was reached on about the 25th day post-cell injection (FIG. 9). These mice were euthanized under anesthesia, and the tumor and other organs were fixed and saved for further studies. […] Livers and lungs were analyzed for the presence of metastatic nodules.

[6] = test system: B16F10 melanoma cells; assay: Relapse and survival after surgical removal of B16F10 melanoma tumors, intraperitoneal treatment (Example 6); type: in vivo, mice; settings: 25 and 50 μg intraperitoneal injections post-surgery
[7] = test system: RENCA cells; assay: Relapse and survival after surgical removal of RENCA kidney tumors, intraperitoneal/intravenous treatment (Example 5); type: in vivo, mice; settings: day 60; 25 μg ip and iv injections in liposomes
Method: 100,000 RENCA cells (ATCC® CRL-2947™ Mus musculus kidney renal adenocarcina) were injected subcutaneously on day 0 in 8 mice. […] Tumors of all animals were removed by surgery and divided in 2 groups. […] Post-suture, a bolus of 250 μl was intraperiotoneally injected in the place of where tumor had grown: the control group was injected with ASO 154 and the treated group with ASO 1560S. On days 13, 15, 17 and 19, intraperitoneal injections of 25 μg ASO 154 (FIG. 12, circles) or 25 μg ASO 1560S (FIG. 12, squares) formulated in liposomes were injected in a volume of 250 μl. On days 14, 16 and 18, the mice were injected intravenously with the same protocol. On day 22, all control animals had tumors larger than 1,200 mm3 and were sacrificed. On day 60, all animals treated with ASO 1560S had no tumors and were still alive (FIG. 12).

[8] = test system: RENCA cells; assay: Relapse and survival after surgical removal of RENCA kidney tumors, single post-surgery treatment (Example 4); type: in vivo, mice; settings: in liposomes
Method: 100,000 RENCA cells (ATCC® CRL-2947™ Mus musculus kidney renal adenocarcina) were injected subcutaneously at day 0. […] The animals were sutured and […] injected at the site of the removed tumor with 100 μg of ASO 154 (FIG. 11, squares) or ASO 1560S (FIG. 11, triangles), both formulated in liposomes, in 250 μl. No further treatment was given.

[9] = test system: MB49 cells (mouse bladder cancer cells); assay: Tumors and survival after surgical removal of MB49 bladder carcinoma tumors (Example 7); type: in vivo, mice
Method: Twelve mice were injected subcutaneously with a 100,000 MB49 cells (mouse bladder cancer cells). After 15 days mice had tumors of an average diameter of 800 mm3. Tumors were surgically removed (day 0) and a bolus of 200 μl containing 100 μg of ASO 154 (control) or ASO 1560S (active drug) was injected at the site of the surgery. Three days post-surgery mice were divided in 2 groups and treated intraperitoneally or intravenously with 100 μl injections containing ASO 154 (control group) or ASO 1560S (treated group) as indicated in FIG. 14. Only one mouse treated intraperitoneally with ASO 1560S developed a tumor.

[10] = FIG. 14, intraperitoneal or intravenous administration
[11] = treated intravenously after 100 μg bolus at surgery site

**Q.** With `N.N.[Cl][Pt][Cl]` [cisplatin] as the molecule, how does the Sphere formation [1] read?
**A.** The Sphere formation was “abolished sphere formation”.

**Q.** And the Sphere formation [2]?
**A.** Its Sphere formation is “no effect; also recorded: resistant to cisplatin treatment”.

**Q.** And the Sphere formation [3]?
**A.** Its Sphere formation is “abolished sphere formation”.

**Q.** What about the Sphere formation [4] of the same molecule?
**A.** Its Sphere formation is “abolished sphere formation”.

**Q.** Which “Relapse of tumor growth after surgery” value ([5]; 100 μg wound wash, 100 μg bolus, then 3 iv and 3 ip injections of 100 μg) does the source give for “ASO 1560S: antisense oligonucleotide targeted to the mouse ASncmtRNAs (SEQ ID NO: 198) (antisense CACCCTCTAACCTAGAGAAG; all phosphorothioate, sugars by position and methylation of C not given here)” here?
**A.** The value was “No relapse; also recorded: prevented or suppressed cancer relapse; also recorded: absence of tumor relapse”.

**Q.** And the Detectable tumors ([5]; 130 days post-cell injection)?
**A.** The Detectable tumors was “without the presence of detectable tumors”.

**Q.** And the “Metastatic nodules in lungs and liver” value ([5]; organs collected at euthanasia)?
**A.** Its value is “lacked the presence of metastatic nodules; also recorded: absence of metastatic nodules”.

**Q.** And the Survival [6]?
**A.** Its Survival is “complete survival”.

**Q.** What about the “Tumor relapse after surgery” value [6] of the same molecule?
**A.** The value was “absence of the intradermal melanoma tumor relapse”.

**Q.** And the Survival [7]?
**A.** The Survival was “still alive”.

**Q.** What about the “Tumors / relapse after surgery” value [7] of the same molecule?
**A.** Its value is “no tumors; also recorded: absence of relapse”.

**Q.** And the Survival ([8]; day 61)?
**A.** Its Survival is “still alive; also recorded: complete survival”.

**Q.** And the “Tumors / tumor relapse after surgery” value ([8]; up to day 61, 100 μg wash and 100 μg injection)?
**A.** The value was “no tumors; also recorded: absence of tumor relapse”.

**Q.** What about the Survival [9, 10] of the same molecule?
**A.** Its Survival is “complete survival”.

**Q.** What about the Tumors [9, 10] of the same molecule?
**A.** The Tumors was “absence of tumors”.

**Q.** What about the “Number of mice that developed a tumor” value ([9]; treated intraperitoneally after 100 μg bolus at surgery site) of the same molecule?
**A.** The value was “one”.

**Q.** What about the Survival [9, 11] of the same molecule?
**A.** The Survival was “full survival”.

**Q.** What about the Tumors [9, 11] of the same molecule?
**A.** Its Tumors is “remained without tumors”.
